In data set [1] the target is T1, Galectin-1 (Homo sapiens (Human), UniProt P09382). Particulars: read-out: affinity to Galectin-1, cited from earlier work.
Target sequence in this assay (P09382 whole entry, species assumed): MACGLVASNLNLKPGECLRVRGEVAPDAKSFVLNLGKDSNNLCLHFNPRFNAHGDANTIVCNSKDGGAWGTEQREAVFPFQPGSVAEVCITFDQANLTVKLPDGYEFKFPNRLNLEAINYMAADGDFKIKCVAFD
For a further data set, the target named is Galectin-3 (Homo sapiens (Human), UniProt P17931). As to the kind of experiment: Fluorescence anisotropy assay, compound as inhibitor of galectin / fluorescein tagged saccharide probe interaction. The class given is binding. On the procedure:
(§1) The affinity of Example 1-32 for galectins were determined by a fluorescence anisotropy assay where the compound was used as an inhibitor of the interaction between galectin and a fluorescein tagged saccharide probe as described Sörme, P., Kahl-Knutsson, B., Huflejt, M., Nilsson, U. J., and Leffler H. (2004) Fluorescence polarization as an analytical tool to evaluate galectin-ligand interactions. Anal. Biochem. 334: 36-47, (Sörme et al., 2004) and Monovalent interactions of Galectin-1 By Salomonsson, Emma; Larumbe, Amaia; Tejler, Johan; Tullberg, Erik; Rydberg, Hanna; Sundin, Anders; Khabut, Areej; Frejd, Torbjorn; Lobsanov, Yuri D.; Rini, James M.; et al, From Biochemistry (2010), 49(44), 9518-9532, (Salonmonsson et al., 2010).
In general terms: In fluorescence polarisation assays a small probe gives low polarisation when free and higher when bound to something large.

Data set [2] addresses T1, Galectin-1. The description is as above. It counts as binding. The protocol:
as §1
Target sequence in this assay (P09382 whole entry): as the sequence (P09382 whole entry, species assumed) above

Data set [3] is described as follows: Permeability (Papp) Caco-2 A>B. The conditions noted are these: human, apical (A) to basolateral (B) direction. The class given is in vitro ADME. On the procedure:
(§2) The permeability (Papp) (Caco-2 A>B) was determined from the apical (A) to the basolateral (B) direction in adenocarcinoma cells from human colon. The human hepatic stability (CLint) was determined in human hepatocytes.
On the technique in general: Caco-2 cells form a polarised layer with tight junctions and transporters.

Data set [4] is described as follows: Human hepatic stability (CLint) in human hepatocytes. It counts as in vitro ADME. Particulars: * = no degradation observed under the assay conditions. The protocol:
as §2

Another data set concerns galectins. Particulars: cited from earlier work.

SMILES strings stand for the structures. Where two headings read alike, the source gives them in different places.

Galectin-3, sequence (P17931 whole entry): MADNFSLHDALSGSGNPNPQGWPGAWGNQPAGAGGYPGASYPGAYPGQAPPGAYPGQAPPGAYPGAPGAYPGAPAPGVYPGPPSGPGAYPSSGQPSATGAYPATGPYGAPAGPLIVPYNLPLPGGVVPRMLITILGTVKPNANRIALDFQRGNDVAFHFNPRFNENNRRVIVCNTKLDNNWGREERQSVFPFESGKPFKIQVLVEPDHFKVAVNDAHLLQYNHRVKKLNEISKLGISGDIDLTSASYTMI

Consider `OCC1O[C@@H](S[C@@H]2O[C@H](CO)C(O)C(n3cc(-c4ccsc4)nn3)[C@H]2O)C(O)[C@@H](n2cc(-c3ccsc3)nn2)[C@H]1O` (stereo partly drawn), for which the Kd at Galectin-1 [1] (T. Delaine, 2016, ChemBioChem) is less than 0.01 µM.

Regarding `OC[C@H]1O[C@H](Sc2cnc(C(F)(F)F)c(Br)c2)[C@H](O)[C@@H](n2cc(-c3ccsc3)nn2)[C@H]1O` [Example 4, 5-Bromo-6-trifluoromethyl-pyridin-3-yl 3-deoxy-3-[4-(3-thiophenyl)-1H-1,2,3-triazol-1-yl]-1-thio-α-D-galactopyranoside], the values for the Kd at Galectin-3 and on Galectin-1 [2] were 1.2 µM and 0.38 µM, respectively. For the same compound, the apparent permeability (Papp) in data set [3] was 2.5 ×10⁻⁶ cm/s. In data set [4], the CLint scaled worked out at 11.3 mL/min/kg.

As to `OCC1O[C@H](Sc2cc(Cl)c(F)c(Cl)c2)C(O)[C@@H](n2cc(-c3nccs3)nn2)[C@H]1O` (stereo partly drawn) [Example 5], the apparent permeability (Papp) in data set [3] was determined as 10.5 ×10⁻⁶ cm/s. Also, the CLint scaled in data set [4] was found to be 0.38 mL/min/kg.

Turning to `OC[C@H]1O[C@H](Sc2ccc(Cl)c(Cl)c2)[C@H](O)[C@@H](n2cc(-c3ccsc3)nn2)[C@H]1O` [Example 1, 3,4-Dichlorophenyl 3-deoxy-3-[4-(3-thiophenyl)-1H-1,2,3-triazol-1-yl]-1-thio-α-D-galactopyranoside], the Kd was determined as 2.6 µM at Galectin-3 and 0.14 µM at Galectin-1 [2]. In data set [3], this compound registered an apparent permeability (Papp) of 10.1 ×10⁻⁶ cm/s. In data set [4], this compound yielded a CLint scaled of 12.1 mL/min/kg.

Regarding `O=C[C@H](O)[C@@H](O)[C@@H](O)[C@H](O)CO` [Galactose, D-galactose], the Kd at Galectin-1 [1] (Tejler et. al. 2009) is 10000 µM. Also, the “affinity relative to lactose” value with galectins (compared with lactose) is listed as 50-100 times lower.

On to `OC[C@H]1O[C@H](Sc2ccc(F)c(Br)c2)[C@H](O)[C@@H](n2cc(-c3nccs3)nn2)[C@H]1O` [Example 27, 3-Bromo-4-fluoro-phenyl 3-deoxy-3-[4-(2-thiazolyl)-1H-1,2,3-triazol-1-yl]-1-thio-α-D-galactopyranoside], for which the Kd on Galectin-3 was 4.7 µM; at Galectin-1 [2] it was 0.49 µM.

Turning to `OC[C@H]1O[C@H](Sc2ccc(Cl)c(Cl)c2)[C@H](O)[C@@H](n2cc(-c3nccs3)nn2)[C@H]1O` [Example 18, 3,4-Dichlorophenyl 3-deoxy-3-[4-(2-thiazolyl)-1H-1,2,3-triazol-1-yl]-1-thio-α-D-galactopyranoside], the Kd on Galectin-3 amounted to 4.1 µM; at Galectin-1 [2] it was 0.24 µM.

Take `OC[C@H]1O[C@@H](O[C@H]2[C@H](O)[C@@H](O)C(O)O[C@@H]2CO)[C@H](O)[C@@H](O)[C@H]1O` (stereo partly drawn) [Lactose]: at galectins (reviewed by Leffler, 2001, Leffler et al., 2004, read-out: Kd for all galectins), the Kd was 100 to 1000 µM.

Take `OC[C@H]1O[C@H](Sc2cnc(C(F)(F)F)c(Br)c2)[C@H](O)[C@@H](n2cc(-c3nccs3)nn2)[C@H]1O` [Example 26, 5-Bromo-6-trifluoromethyl-pyridine-3-yl 3-deoxy-3-[4-(2-thiazolyl)-1H-1,2,3-triazol-1-yl]-1-thio-α-D-galactopyranoside]: the Kd on Galectin-3 was 2 µM; at Galectin-1 [2] it was 0.31 µM.

As to `OC[C@H]1O[C@H](Sc2cc(Cl)c(F)c(Cl)c2)[C@H](O)[C@@H](n2cc(-c3cccs3)nn2)[C@H]1O` [Example 8, 3,5-Dichloro-4-fluoro-phenyl 3-deoxy-3-[4-(2-thiophenyl)-1H-1,2,3-triazol-1-yl]-1-thio-α-D-galactopyranoside], the Kd on Galectin-3 is 2.3 µM; on Galectin-1 [2] it was 0.92 µM.

Turning to `N#Cc1ncc(S[C@H]2O[C@H](CO)[C@H](O)[C@H](n3cc(-c4nccs4)nn3)[C@H]2O)cc1Cl` [Example 23, 5-Chloro-6-cyano-pyridine-3-yl 3-deoxy-3-[4-(2-thiazolyl)-1H-1,2,3-triazol-1-yl]-1-thio-α-D-galactopyranoside], the Kd amounted to 4.4 µM at Galectin-3 and 0.44 µM on Galectin-1 [2].

For the compound `Cc1nc(-c2cn([C@@H]3[C@@H](O)[C@@H](Sc4cncc(Br)c4)O[C@H](CO)[C@@H]3O)nn2)cs1` [Example 15, 5-Bromopyridin-3-yl 3-deoxy-3-[4-(2-methyl-4-thiazolyl)-1H-1,2,3-triazol-1-yl]-1-thio-α-D-galactopyranoside], the results for the Kd at Galectin-3 and on Galectin-1 [2] were 3.2 µM and 0.64 µM, respectively.

Turning to `OC[C@H]1O[C@H](Sc2cc(Cl)cc(Cl)c2)[C@H](O)[C@@H](n2cc(-c3nccs3)nn2)[C@H]1O` [Example 24, 3,5-Dichlorophenyl 3-deoxy-3-[4-(2-thiazolyl)-1H-1,2,3-triazol-1-yl]-1-thio-α-D-galactopyranoside], the figures for the Kd on Galectin-3 and on Galectin-1 [2] were 1.6 µM and 0.34 µM, respectively.

For `OC[C@H]1O[C@H](Sc2cc(Cl)c(Cl)c(Cl)c2)[C@H](O)[C@@H](n2cc(-c3nccs3)nn2)[C@H]1O` [Example 17, 3,4,5-Trichlorophenyl 3-deoxy-3-[4-(2-thiazolyl)-1H-1,2,3-triazol-1-yl]-1-thio-α-D-galactopyranoside], the results for the Kd at Galectin-3 and at Galectin-1 [2] were 1.3 µM and 0.61 µM, respectively.

On to `OC[C@H]1O[C@H](Sc2cc(Cl)c(F)c(Cl)c2)[C@H](O)[C@@H](n2cc(-c3cscn3)nn2)[C@H]1O` [Example 14, 3,5-Dichloro-4-fluoro-phenyl 3-deoxy-3-[4-(4-thiazolyl)-1H-1,2,3-triazol-1-yl]-1-thio-α-D-galactopyranoside], for which the results for the Kd at Galectin-3 and on Galectin-1 [2] were 6.2 µM and 0.23 µM, respectively. In addition, in data set [3], the Papp was 8.8 ×10⁻⁶ cm/s.

What is called Papp is the rate of passage across a membrane or cell layer, normalised by area and donor concentration. Higher therefore signals ready permeation. The term CLint scaled denotes the capacity of the preparation to metabolise the compound, expressed as a volume cleared per time. The low end stands for slow turnover, the high end for rapid turnover.

These data come from patent US10988502B2, “Alpha-D-galactoside inhibitors of galectins” (GALECTO BIOTECH AB, priority 2016, dated 2021).
